{"source": "patent US20060014704A1", "about": "“Compounds and their preparation for the treatment of Alzheimer's disease by inhibiting beta-amyloid peptide production” (priority 2004, published 2006)", "key": {"[1]": {"test_system": "Aβ40 and Aβ42 production, CHO cells stably transfected with human APP695", "assay": "Secreted Aβ40/Aβ42 ELISA in CHO cells expressing human APP (CHO-APP cells)", "assay_type": "cell-based, Chinese hamster", "design": "key to Aβ42-lowering activity: Aβ42-lowering activity (“Yes”); no profound effects (“No”); non-determined (“ND”); Ginsenosides that affected cell viability are indicated as “Cytotoxic.”", "method": "The CHO cells were treated with the indicated compounds (at 50 μg/ml) for 8 hrs. Aβ42 levels in the medium were measured by ELISA and normalized to intracellular full-length APP.\nThe potential effects of ginsenosides and their analogues in treating AD were examined. First, a number of ginsenosides were screened based on their effects on Aβ generation. The effects of various ginsenosides on Aβ (e.g., Aβ40 and Aβ42) production was initially accessed by incubating the Chinese hamster ovary (CHO) cells expressing human APP(CHO-APP cells) with each ginsenoside purified from unprocessed ginseng (known as “white ginseng”). These representative ginsenosides included Rb1, Rb2, Rc, Rd, Re, Re, Rg1 and Rg2 and differ in their side chains and sugar moieties.\nAfter 8 hours of incubation, the media were collected and the levels of secreted Aβ40 and Aβ42 were determined by ELISA."}, "[2]": {"test_system": "full-length APP and APP C-terminal fragments, Neuro2a-APPsw cells", "assay": "Western blot analysis of APP processing in neuro2a cells expressing APPsw", "assay_type": "cell-based, mouse", "excerpt": "FIG. 13. depicts an analysis of APP processing after Rk1 treatment. Steady-state levels of full-length APP and APP C-terminal fragments (APP-CTFs) were examined by Western blot analysis using anti-R1 antibody. […] Correlated Aβ42 levels for each sample are shown in the bottom panel."}, "[3]": {"molecular_target": "T1, γ-secretase cleavage of Notch1 (NICD) (Homo sapiens, UniProt P49768)", "T1 construct": "Membrane fractions isolated from 293 cells overexpressing either APP (A), Notch-AE (B) or p75-AE (C); endogenous in cells; host or cells: 293 cells (membrane fractions); only the substrates APP, Notch-ΔE and p75-ΔE are overexpressed", "assay": "Cell-free generation of NICD from membrane fractions of 293 cells overexpressing Notch-AE", "assay_type": "biochemical", "method": "Membrane fractions isolated from 293 cells overexpressing either APP (A), Notch-AE (B) or p75-AE (C) and incubated in the presence of indicated compounds: Compound E (CpdE, general γ-secretase inhibitor), Rgk351, Rk1 and sulindac sulfide (SS)."}}, "note": "Entries after “also recorded” stand apart in the source; their conditions may differ."}
{"smiles": "C=C(CCC=C(C)C)[C@H]1CC[C@]2(C)[C@@H]1[C@H](O)C[C@@H]1[C@@]3(C)CC[C@H](O[C@@H]4O[C@H](CO)[C@@H](O)[C@H](O)[C@H]4O[C@@H]4O[C@H](CO)[C@@H](O)[C@H](O)[C@H]4O)C(C)(C)[C@@H]3CC[C@]12C", "note": "[Rk1]", "values": [{"measurement": "generation of Aβ42 (Aβ42 levels in the medium, ELISA, normalized to intracellular full-length APP)", "setting": "[1]; 50 μg/ml, 8 hrs, FIG. 4", "value": "reduce the generation of Aβ42"}, {"measurement": "Aβ42-lowering effect compared with other agents", "setting": "[1]; CHO-APP cells", "value": "most effective"}, {"measurement": "IC50", "setting": "[1]; CHO-APP cells, FIG. 12A, read-out: IC50 of Aβ42 lowering activity", "value": "~20", "unit": "µM"}, {"measurement": "preference for Aβ42 vs. Aβ40 in cell-based assay", "setting": "[1]; FIG. 6 / FIG. 12B", "value": "preferentially reduced Aβ42 (vs. Aβ40); also recorded: preferentially lowers Aβ42 (vs. Aβ40); also recorded: rather selective to Aβ42; also recorded: primarily affect Aβ42 production"}, {"measurement": "Aβ42 in the medium, dose-response", "setting": "[1]; dose-dependent, FIG. 5 / FIG. 12A", "value": "reduced Aβ42; also recorded: lower Aβ42 in a dose-dependent manner"}, {"measurement": "production of Aβ42 in cells", "setting": "[1]; general statement", "value": "lower the production of Aβ42"}, {"measurement": "concentration at which secretion of Aβ40 was affected", "setting": "[1]; only at very high concentration", "value": "~100", "unit": "µM"}, {"measurement": "Aβ40 production", "setting": "[1]; overnight treatment, FIG. 12B", "value": "slightly affected"}, {"measurement": "Aβ42 production", "setting": "[1]; overnight treatment, FIG. 12B", "value": "reduce Aβ42 production"}, {"measurement": "Aβ42-lowering activity", "setting": "[1]; summary of Tables 1-3", "value": "Yes"}, {"measurement": "full-length APP levels", "setting": "[2]; Neuro2a-APPsw cells", "value": "did not affect"}, {"measurement": "APP C-terminal fragments, steady-state levels", "setting": "[2]; neuro2a cells expressing APPsw", "value": "increased accumulation; also recorded: up-regulated"}, {"measurement": "cell-free generation of NICD", "setting": "[3]", "value": "does not significantly affect; also recorded: not affected"}]}
